In data set [1] the test system is MCF 7 (breast cancer) cell line. The data set is described as follows: cells. It is filed as cell-based. Conditions: for GI50: read-out: GI50 MCF 7. As for the experimental part:
(§1) Anticancer activity: In vitro biological activity studies were carried out at the Advance Center for Treatment Research & Education in Cancer (ACTREC), Navi Mumbai.
(§2) The compounds were evaluated for in vitro anticancer activity against eight tumour cells lines derived from seven cancer types (non-small-cell lung, colon, oral, cervix, ovarian, prostate, and breast cancer) as shown in Table 2. For each compound, dose response curves for each cell line were measured at a minimum of five concentrations at 10 fold dilutions. A protocol of 48 h continuous drug exposure was used and a sulforhodamine B (SRB) protein assay was used to estimate cell viability or growth. The concentration causing 50% cell growth inhibition (GI50) and 50% cell death (LC50, −50% growth) compared with the control was calculated. Compounds 9a-9l have been evaluated for their in vitro cytotoxicity in eight cell lines from seven human cancer types of lung (Hop-62, A-549) colon (COLO-205) cervix (Si—Ha), ovary (A-2780), prostate (PC3) breast (MCF7), oral (KB). The results are expressed as percent of cell growth determined relative to that of untreated control cells (Table-8 and table-9).

Data set [2] concerns A 549 (lung cancer) cell line. Briefly: cells. It is filed as cell-based. Conditions: for GI50: 48 h drug exposure, SRB, mean of three determinations, read-out: GI50 A 549. The protocol: as §1, §2
Data set [3] relates to SiHa (cervix cancer) cell line. The data set is described as follows: cells. The following applies: for GI50: mean of three determinations. It is filed as cell-based. The protocol: as §1, §2
For data set [4], the system named is HOP 62 (lung cancer) cell line. Briefly: cells. Format: cell-based. The protocol:
as §1, §2

Data set [5] relates to PC 3 (prostate cancer) cell line. Briefly: cells. The following applies: for GI50: Homo sapiens, read-out: GI50 PC 3. It is filed as cell-based. The protocol:
as §1, §2

The test system of data set [6] is Colo 205 (colon cancer) cell line. The data set is described as follows: cells. It is filed as cell-based. As for the experimental part: as §1, §2
In data set [7] the test system is A 2780 (ovary cancer) cell line. The data set is described as follows: cells. It is filed as cell-based. Conditions: for GI50: mean of three determinations. The protocol:
as §1, §2

The test system of data set [8] is KB (oral cancer) cell line. Briefly: In vitro anticancer activity, SRB assay, KB. It is filed as cell-based, human. Conditions: 48 h drug exposure, SRB; for GI50: mean of three determinations, read-out: GI50 KB. The protocol: as §1, §2
(In SRB staining, fixed cells bind dye roughly in proportion to their protein.)

The test system of data set [9] is duplex-form calf thymus DNA (CT-DNA). The data set is described as follows: Thermal denaturation studies with calf thymus DNA (DNA binding affinity). Conditions: [PBD]:[DNA] 1:5, CT-DNA 100 μM, ligand 20 μM, pH 7.00. As for the experimental part:
Compounds have been subjected to thermal denaturation studies with duplex-form calf thymus DNA (CT-DNA) using an modification of a reported procedure (Newman, M. S. Carcinog-compr. Surv. 1976,1, 203; (b) Hecht, S. S.; Loy, M.; Hoffman, Carcinog-compr. Surv. 1976, 1, 325). Working solutions in aqueous buffer (10 mM NaH2PO4/Na2HPO4, 1 mM Na2EDTA, pH 7.00+0.01) containing CT-DNA (100 μm in phosphate) and the PBD (20 μm) have been prepared by addition of concentrated PBD solutions in DMSO to obtain a fixed [PBD]/[DNA] molar ratio of 1:5. The DNA-PBD solutions have been incubated at 37° C. for 0 and 18 h prior to analysis. Samples have been monitored at 260 using a Beckman DU-800 spectrophotometer fitted with high performance temperature controller, and heated at 1° C. min^−1 in the 40-110° C. range. DNA helix→coil transition temperatures (Tm) have been obtained from the maxima in the d(A260)/dT derivative plots. Drug-induced alterations in DNA melting behavior are given by: ΔTm=Tm(DNA+PBD)−Tm(DNA alone), where the Tm value for the PBD-free CT-DNA is 69.1±0.01.
The DNA binding activity for these novel C8-linked benzothiazole, benzoxazole-PBD hybrids has been examined by thermal denaturation studies using calf thymus (CT) DNA. […] The data for the compounds 9a-n is included in Table 7 for comparison.

[10] abbreviates: 48 h drug exposure, SRB, mean of three determinations.

Where two headings read alike, the source gives them in different places.

Broadly, the GI50 is the concentration at which growth is held to half of that of the control. As a reminder, the CC50 is the concentration giving 50% cytotoxicity. The low end stands for greater toxicity to the cells, the high end for lower toxicity to the cells.

`COc1cccc2c1C(=O)c1c(O)c3c(c(O)c1C2=O)C[C@@](O)(C(=O)CO)C[C@@H]3O[C@H]1C[C@H](N)[C@H](O)[C@H](C)O1` [ADR, adriamycin, reference compound]: the concentration for 50% growth inhibition (GI50) in data set [1] (Homo sapiens, MCF7, 48 h drug exposure, SRB, mean of three determinations) is under 0.01 µM; in data set [2] (Homo sapiens, A549), 13 µM; in data set [3] (Homo sapiens, SiHa, 48 h drug exposure, SRB, read-out: GI50 SiHa), 0.19 µM; in data set [4] (Homo sapiens, HOP-62; 48 h drug exposure, SRB; mean of three determinations; read-out: GI50 HOP 62) it was under 0.01 µM; in data set [5] (setting [10]), under 0.01 µM; in data set [6] (Homo sapiens, COLO 205; 48 h drug exposure, SRB; mean of three determinations; read-out: GI50 Colo 205), 14.7 µM. Moreover, the 50% growth inhibitory concentration (GI50) in data set [7] (Homo sapiens, A2780, 48 h drug exposure, SRB, read-out: GI50 A 2780) stood at 0.002 µM; in data set [8] (Homo sapiens, 48 h), 0.16 µM.

`COc1cc2c(cc1OCCCCN1CCN(CCCCOc3ccc(-c4nc5ccccc5s4)cc3)CC1)N=C[C@@H]1CCCN1C2=O` [Compound 9e, 7-Methoxy-8-[4-(4-{4-[4(1,3-benzothiazol-2-yl)-phenoxy]butyl}piperazin-1-yl)butyl]oxy-(11aS)-1,2,3,11a-tetrahydro-5H-pyrrolo[2,1-c][1,4]benzodiazepin-5-one]: the “ΔTm after incubation at 37° C. for 0 h” value in [9] was 12.2 °C. Further, the “ΔTm after incubation at 37° C. for 18 h” value in data set [9] was 12.6 °C. Moreover, the GI50 in data set [1] (Homo sapiens, MCF7, 48 h) was under 0.01 µM; in data set [2], 0.105 µM; in data set [3] (Homo sapiens, SiHa, 48 h, read-out: GI50 SiHa, 48 h drug exposure, SRB), 0.107 µM; in data set [4] (read-out: GI50 HOP 62; 48 h drug exposure, SRB; mean of three determinations), under 0.01 µM; in data set [5] (48 h), under 0.01 µM; in [6] (read-out: GI50 Colo 205; 48 h drug exposure, SRB; mean of three determinations) it was 0.12 µM. Also, the concentration for 50% growth inhibition (GI50) in data set [7] (Homo sapiens, A2780, 48 h, read-out: GI50 A 2780, 48 h drug exposure, SRB) is 0.097 µM; in data set [8], under 0.01 µM. Besides, the half-maximal cytotoxic concentration (CC50) in data set [1] (human, 48 h) was 0.15 µM; in [2] (human, 48 h) it was over 100 µM; in data set [3] (human, 48 h), 27.8 µM; in data set [4] (human, 48 h) it was 27 µM; in data set [5] (human, 48 h), 2.5 µM; in data set [6] (human, 48 h), over 100 µM. The compound further registered a half-maximal cytotoxic concentration (CC50) in [7] (human, 48 h) of 2.2 µM. The “LC50 KB” value in data set [8] (50% cell death) is 2.3 µM.

For `COc1cc(-c2nc3ccccc3s2)ccc1OCCCCN1CCN(CCCCOc2cc3c(cc2OC)C(=O)N2CCC[C@H]2C=N3)CC1` [Compound 9m, 7-Methoxy-8-[4-(4-{4-[4(1,3-benzothiazol-2-yl)-2-methoxyphenoxy]butyl}piperazin-1-yl)butyl]oxy-(11aS)-1,2,3,11a-tetrahydro-5H-pyrrolo[2,1-c][1,4]benzodiazepin-5-one], in [9], the “ΔTm after incubation at 37° C. for 0 h” value was 12.1 °C and the “ΔTm after incubation at 37° C. for 18 h” value worked out at 12.5 °C.

Regarding `COc1cc2c(cc1OCCCCN1CCN(CCCCOc3cccc(-c4nc5ccccc5s4)c3)CC1)N=C[C@@H]1CCCN1C2=O` [Compound 9n, 7-Methoxy-8-[4-(4-{4-[3(1,3-benzothiazol-2-yl)-phenoxy]butyl}piperazin-1-yl)butyl]oxy-(11aS)-1,2,3,11a-tetrahydro-5H-pyrrolo[2,1-c][1,4]benzodiazepin-5-one], in data set [9], the “ΔTm after incubation at 37° C. for 0 h” value is 10.3 °C and the “ΔTm after incubation at 37° C. for 18 h” value was found to be 10.6 °C.

For the compound `COc1cc2c(cc1O)N=CC1CCCN1C2=O` (centres unmarked) [DC-81, reference compound], the “ΔTm after incubation at 37° C. for 0 h” value in [9] is 0.3 °C. Moreover, the “ΔTm after incubation at 37° C. for 18 h” value in data set [9] worked out at 0.7 °C. Moreover, the GI50 stood at 0.16 µM in data set [1] (setting [10]); 0.16 µM in [3] (48 h drug exposure, SRB, read-out: GI50 SiHa); 0.11 µM in data set [4] (48 h drug exposure, SRB; mean of three determinations; read-out: GI50 HOP 62); 0.1 µM in data set [6] (48 h drug exposure, SRB; mean of three determinations; read-out: GI50 Colo 205); 0.13 µM in data set [7] (48 h drug exposure, SRB, read-out: GI50 A 2780); 0.17 µM in data set [8].

The values are drawn from patent US8637665B2, “Pyrrolo[2,L-C][L,4]benzodiazepine-benzothiazole or benzoxazole conjugates linked through piperazine moiety and process for the preparation thereof” (priority 2010, dated 2014).
